US20100210602A1, “PhoU (PerF), A P[…] INVOLVED IN [sequence] FORMATION AND TOLERANCE TO MULTIPLE ANTIBIOTICS AND [sequence] AS A DRUG TARGET FOR [sequence] BACTERIA” (priority 2006, published 2010)
≈ marks a conversion by molar mass, not a printed value. Like-named read-outs stand apart in the source and are kept apart here.

Experiments:
H37Rv [1] = test: microbe, parasite or virus in culture; format: cell-based, M. tuberculosis; settings: Mycobacterium tuberculosis, 240 h
parent strain H37Rv = format: cell-based, M. tuberculosis
PhoU mutant JHU-313 = format: cell-based, E. coli
H37Rv [2] = test: microbe, parasite or virus in culture; format: cell-based, M. tuberculosis; settings: Mycobacterium tuberculosis
wild type strain W3110 [3] = test: microbe, parasite or virus in culture; format: cell-based, E. coli; settings: for CFU remaining: stationary phase
PhoY2 = PhoY2 (Mycobacterium tuberculosis, UniProt P9WI95); test: EnzChek phosphatase assay, FDA approved compound library screen; format: biochemical, M. tuberculosis; settings: for inhibition of PhoY2 enzyme activity in library screen: 50 μM final concentration, 30 min, 60 min and overnight
PhoY2, sequence (P9WI95 whole entry): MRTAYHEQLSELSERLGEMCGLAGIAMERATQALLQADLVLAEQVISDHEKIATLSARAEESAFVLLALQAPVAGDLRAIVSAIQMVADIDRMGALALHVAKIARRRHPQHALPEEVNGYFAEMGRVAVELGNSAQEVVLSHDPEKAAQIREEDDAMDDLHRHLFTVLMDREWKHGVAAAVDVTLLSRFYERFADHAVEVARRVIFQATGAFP
Description: The FDA approved compound library consisting of about 3000 clinical compounds (50 μM final concentration) was screened for inhibitory activity for M. tuberculosis PhoU homolog PhoY2 for phosphatase activity using the EnzChek phosphatase assay kit in a 96 well plate format. The assay was run for 30 min, 60 min and overnight when the plates were read in a fluorescence plate reader (Perkin Elmer). Aurintricarboxylic acid, a known phosphatase inhibitor, was included as a positive control.

wild type strain W3110 [4] = test: Weak acid susceptibility on LB agar pH 5.0; format: cell-based, E. coli; settings: salicylic acid 80 μg/ml, pyrazinoic acid 230 μg/ml, overnight 37° C.
PhoU mutant = test: Weak acid susceptibility on LB agar pH 5.0; format: cell-based, E. coli; settings: salicylic acid 80 μg/ml, pyrazinoic acid 230 μg/ml, overnight 37° C.
M. tuberculosis H37Rv = test: Killing of old stationary phase cells by PhoY2 inhibitors with TB drugs (CFU); format: cell-based; settings: one and two week exposure, 37° C.
Description: PhoY2 phosphatase activity inhibitors identified in the screen were tested for their ability to decrease persister formation in M. tuberculosis. […] After one and two week exposure, CFU (colony forming unit) was measured.

PhoU mutant (JHU-313) [5] = test: MIC/MBC by serial two-fold dilutions in LB broth; format: cell-based, E. coli; settings: 16 h at 37° C.
wild type strain W3110 [6] = format: cell-based, E. coli; settings: 20 h after 1.5 h ampicillin pre-exposure; ampicillin 100, gentamicin 20, trimethoprim 16, norfloxacin 5 μg/ml
wild type strain W3110 [7] = test: microbe, parasite or virus in culture; format: cell-based, E. coli; settings: LB broth, 16 h at 37° C.
JHU-313 = test: Kirby-Bauer paper disc assay, zone inhibition
Description: (§1) The sensitivity of the bacterial strains to antibiotics or peroxide was determined by Kirby-Bauer's paper disc assay as measured by zone inhibition in millimeters.
(§2) The sensitivity of bacterial strains to antibiotics or stresses was also assessed by the Kirby-Bauer method (2) using paper discs. E. coli bacteria were grown to log phase (10^8 bacteria) in LB broth. An inoculum from this culture was spread across the surfaces of LB plates to provide confluent growth. Nitrocellulose discs (7 mm in diameter) soaked with appropriate antibiotics or stress agents (100 mM H2O2, were placed on the agar surface). After incubation at 37° C. for 48 h, the diameter of the zone of growth inhibition was measured and scored according to the size of the zone of inhibition, which is directly proportional to the sensitivity of the organism to the antibiotic.

PhoU mutant (JHU-313) [8] = test: Sequential antibiotic exposure of ampicillin persisters (CFU); format: cell-based, E. coli; settings: 20 h after 1.5 h ampicillin pre-exposure; ampicillin 100, gentamicin 20, trimethoprim 16, norfloxacin 5 μg/ml
[9] = tested on: JHU-313 containing pVector; test: Kirby-Bauer paper disc assay, zone inhibition
Description: as §1, §2

[10] = tested on: JHU-313 containing pVector; test: MIC/MBC by serial two-fold dilutions in LB broth; format: cell-based, E. coli; settings: 16 h at 37° C.
JHU-313 containing pPhoU [11] = test: MIC/MBC by serial two-fold dilutions in LB broth; format: cell-based, E. coli; settings: 16 h at 37° C.
JHU-313 containing pPhoU [12] = test: Kirby-Bauer paper disc assay, zone inhibition
Description: as §1, §2

E. coli PhoU = target: T1, E. coli PhoU (Escherichia coli, UniProt P0A9K7); test: EnzChek phosphatase assay, DiFMUP substrate, pH 5.5; format: biochemical; settings: pH 5.5, DiFMUP
T1 construct: His; made in house
T1 sequence (P0A9K7 whole entry): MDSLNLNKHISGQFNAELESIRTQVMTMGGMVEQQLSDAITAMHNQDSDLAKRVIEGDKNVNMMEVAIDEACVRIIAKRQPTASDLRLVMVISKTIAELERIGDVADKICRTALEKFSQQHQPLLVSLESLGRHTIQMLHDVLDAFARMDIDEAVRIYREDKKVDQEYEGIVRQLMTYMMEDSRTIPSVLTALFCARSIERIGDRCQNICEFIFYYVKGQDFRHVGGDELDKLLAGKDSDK
Description: In order to test PhoU for phosphatase activity, purified PhoU protein was analyzed using the EnzChek phosphatase assay kit (Invitrogen, Molecular Probes). Phosphatase activity was continuously monitored at acidic pH 5.5 and 6,8-difluoro-4-methylumbelliferyl phosphate (DiFMUP) was used as the substrate according to manufacturer's instruction.
Since most phosphatases have a metal requirement for activity, using either Mg^2+ or Zn^2+, the effects of various metal ions on the PhoU phosphatase enzyme activity were examined at acidic pH 5.5 and using DiFMUP as a substrate.
Phosphatase assays were performed using purified recombinant wild type and mutant PhoU proteins.

PhoY1 = target: T2, PhoY1 (Mycobacterium tuberculosis, UniProt P9WI97); test: EnzChek phosphatase assay; format: biochemical, M. tuberculosis; settings: pH 5.5
T2 sequence (P9WI97 1-221): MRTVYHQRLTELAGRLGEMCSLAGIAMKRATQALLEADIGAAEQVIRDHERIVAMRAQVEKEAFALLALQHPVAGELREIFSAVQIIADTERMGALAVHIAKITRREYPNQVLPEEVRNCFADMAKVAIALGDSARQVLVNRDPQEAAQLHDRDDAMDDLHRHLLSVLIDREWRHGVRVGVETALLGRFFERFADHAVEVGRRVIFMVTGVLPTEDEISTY

NNC(=O)c1ccncc1 [INH, isoniazid]
MIC (H37Rv [1]; 10 days at 37° C.): 0.2 µg/mL (≈ 1.46 µM)

NC(=O)c1cnccn1 [PZA, pyrazinamide]
MIC (H37Rv [1]; pH 5.6, pH5.6, 10 days at 37° C.): 200 µg/mL (≈ 1620 µM)
CFU/ml 3 day (parent strain H37Rv; 200 μg/ml): 3.1 × 10^5 CFU/ml
CFU/ml 9 day (parent strain H37Rv; 200 μg/ml): 5.3 × 10^3 CFU/ml
killing of culture (PhoU mutant JHU-313; pH 5): completely killed
viable bacteria left (PhoU mutant JHU-313; stationary phase, 500 μg/ml, pH 5.0, 1 week): no viable bacteria left
sterilization of culture (PhoU mutant JHU-313; stationary phase, 2 mg/ml, pH 5.0, day 6): completely sterilized
MBC (H37Rv [2]; pH 5.9, read-out: MBC): 400 µg/mL (≈ 3250 µM)
MIC (H37Rv [2]; pH 5.9, read-out: MIC): 200 µg/mL (≈ 1620 µM)
MIC (wild type strain W3110 [3]; Escherichia coli, W3110, normal growing E. coli, pH 5.0): > 2000 µg/mL
CFU left (wild type strain W3110 [3]; pH 5): about 10^6 CFU/ml
CFU remaining (wild type strain W3110 [3]; 500 μg/ml, pH 5.0, 1 week): 5×10^4 CFU/ml
CFU remaining (wild type strain W3110 [3]; 2 mg/ml, pH 5.0, day 6): 6.7×10^6 CFU/ml

CO[C@H]1/C=C/O[C@@]2(C)Oc3c(C)c(O)c4c(O)c(c(/C=N/N5CCN(C)CC5)c(O)c4c3C2=O)NC(=O)/C(C)=C\C=C\[C@H](C)[C@H](O)[C@@H](C)[C@@H](O)[C@@H](C)[C@H](OC(C)=O)[C@@H]1C [RIF, rifampin]
MIC (H37Rv [1]; 10 days at 37° C.): 0.2 µg/mL (≈ 0.243 µM)
CFU/ml 3 day (parent strain H37Rv; 8 μg/ml): 3.37 × 10^5 CFU/ml
MBC (H37Rv [2]): 0.2 µg/mL (≈ 0.243 µM)
MIC (H37Rv [2]): 0.1 µg/mL (≈ 0.122 µM)

C1CNCCN1 [piperazine]
inhibition of PhoY2 enzyme activity in library screen (PhoY2): inhibit PhoY2 enzyme activity

CN1CCCN=C1/C=C/c1cccs1 [pyrantel pamoate]
inhibition of PhoY2 enzyme activity in library screen (PhoY2): inhibit PhoY2 enzyme activity

O=C(O)c1cnccn1 [pyrazinoic acid]
growth on LB agar with weak acid (wild type strain W3110 [4]): resistant
growth on LB agar with weak acid (PhoU mutant): lack of growth at ⅓ MIC

O=C(O)c1ccccc1O [salicylic acid]
growth on LB agar with weak acid (wild type strain W3110 [4]): resistant
growth on LB agar with weak acid (PhoU mutant): lack of growth at ⅓ MIC

Pyrantel tartrate
enhancement of INH, RIF or PZA activity (M. tuberculosis H37Rv): could enhance the activity of INH, RIF or PZA

gentamicin
MBC (PhoU mutant (JHU-313) [5]): 2.5 µg/mL
MIC (PhoU mutant (JHU-313) [5]): 1.25 µg/mL
zone inhibition (W3110; 0.1 μg/ml): 14 mm
zone inhibition (W3110; 0.5 μg/ml): 20 mm
zone inhibition (W3110; 2 μg/ml): 22 mm
zone inhibition (W3110; 10 μg/ml): 25 mm
CFU after second antibiotic exposure (wild type strain W3110 [6]): 5 × 10^5 CFU/ml
MBC (wild type strain W3110 [7]): 5 µg/mL
MIC (wild type strain W3110 [7]): 2.5 µg/mL
zone inhibition (JHU-313; 0.1 μg/ml): 20 mm
zone inhibition (JHU-313; 0.5 μg/ml): 22 mm
zone inhibition (JHU-313; 2 μg/ml): 26 mm
zone inhibition (JHU-313; 10 μg/ml): 27 mm
CFU after second antibiotic exposure (PhoU mutant (JHU-313) [8]): 2 × 10^3 CFU/ml
zone inhibition ([9]; 0.1 μg/ml): 22 mm
zone inhibition ([9]; 0.5 μg/ml): 29 mm
zone inhibition ([9]; 2 μg/ml): 30 mm
zone inhibition ([9]; 10 μg/ml): 31 mm
MBC [10]: 2.5 µg/mL
MIC [10]: 1.25 µg/mL
MBC (JHU-313 containing pPhoU [11]): 5 µg/mL
MIC (JHU-313 containing pPhoU [11]): 2.5 µg/mL
zone inhibition (JHU-313 containing pPhoU [12]; 0.1 μg/ml): 17 mm
zone inhibition (JHU-313 containing pPhoU [12]; 0.5 μg/ml): 22 mm
zone inhibition (JHU-313 containing pPhoU [12]; 2 μg/ml): 24 mm
zone inhibition (JHU-313 containing pPhoU [12]; 10 μg/ml): 28 mm

phosphate
effect on PhoY2 phosphatase activity (PhoY2; pH 5.5): inhibited
effect on PhoU phosphatase activity (E. coli PhoU): inhibit the phosphatase activity
effect on PhoY1 phosphatase activity (PhoY1): inhibited
